Laboratory results taken from paper PMC8632000 (Frontiers in Pharmacology, 2021).

Key:
[1] = cited from earlier work
[2] = Population pharmacokinetic model (NONMEM) of vancomycin plasma concentration-time data in surgical patients
Description: Only patients who underwent a major surgical procedure and were above the age of 18 years were included in the study. […] The dose selection and duration of infusion were at the discretion of the attending medical practitioners. […] Patient demographics, including age, weight, sex, type of disease, and serum creatinine (SCR) were recorded from patient files, and creatinine clearance (CRCL) was calculated using the Cockcroft and Gault equation ([Cockcroft and Gault, 1976]).
Briefly, separation was carried out using a C18 column (125 mm × 4.6 mm, 5 µm) with UV detection at 205 nm. The mobile phase was a combination of buffer (50 mM ammonium dihydrogen phosphate) at pH 2.2 and acetonitrile (88:12 v/v). The method was linear over the concentration range of 0.25–60 mg/l.
The population pharmacokinetic model was developed using nonlinear mixed effect modeling (NONMEM version 7.4.4) software provided by Icon Clinical Research LLC, New York, NY, USA, along with the Perl-speaks-NONMEM (PsN) toolkit ([Lindbom et al., 2005]). The execution and management of the model as well as report generation were performed with the aid of Pirana (Certara, Princeton, NJ, USA) ([Keizer et al., 2011]). The actual process of modeling began with the development of one-compartment and two-compartment base models using the first-order conditional estimation method with interaction (FOCE-I) to obtain pharmacokinetic parameter estimates without any covariates. […] The exponential random-effect model was used to describe the between-subject variability (BSV) on pharmacokinetic (PK) parameters, while additive, proportional, and combined residual error models were tested to describe the residual error between the observed and predicted concentrations of vancomycin.
The influence of different covariates (age, sex, WT, SeCR, and CRCL) on CL and Vd was determined by stepwise covariate modeling (SCM) in which the covariates were included in the model by forward inclusion and backward elimination processes. […]

[3] = median of 1,000 bootstrap estimates

CN[C@H](CC(C)C)C(=O)N[C@H]1C(=O)N[C@@H](CC(N)=O)C(=O)N[C@H]2C(=O)N[C@H]3C(=O)N[C@H](C(=O)N[C@H](C(=O)O)c4cc(O)cc(O)c4-c4cc3ccc4O)[C@H](O)c3ccc(c(Cl)c3)Oc3cc2cc(c3O[C@@H]2O[C@H](CO)[C@@H](O)[C@H](O)[C@H]2O[C@H]2C[C@](C)(N)[C@H](O)[C@H](C)O2)Oc2ccc(cc2Cl)[C@H]1O [Vancomycin]
Vancomycin CL in obese patients ([1]; obese patients, ref Blouin et al., 1982, Bauer et al., 1998, Adane et al., 2015): 6.54 to 11.8 L/h
Reported CL values in other studies ([1]; ref Buelga et al., 2005, Llopis-Salvia and Jiménez-Torres, 2006, Staatz et al., Thomson et al., 2009, Tanaka et al., 2010, Udy et al., 2013, Escobar et al., 2014, Usman et al., 2018): 1.08 to 2.99 L/h
Vd, lower end of reported range ([1]; ref Escobar et al., 2014): 11.8 L
Vd, upper end of reported range ([1]; ref Lin et al., 2016): 101 L
Fraction of drug excreted via renal elimination ([1]; ref Matzke et al., 1984, Rodvold et al., 1988, Ducharme et al., 1994): 80%–90%
CL, bootstrap estimate [2, 3]: 2.46 L/h
V, bootstrap estimate [2, 3]: 22.7 L
V (volume of distribution), final estimate ([2]; one-compartment final model, 58 patients): 22.6 L
